{
  "source": "patent US5258371A",
  "about": "“Method to reduce connective tissue destruction” (Kuraray Co., Ltd., priority 1992, dated 1993)",
  "key": {"[1]": {"target": "T1, collagenase (Oryctolagus cuniculus, UniProt P13943)", "T1 construct": "endogenous in cells; host or cells: primary knee articular chondrocytes of Japanese white rabbit, stimulated with human recombinant interleukin-1 ('Interleukin-1a' in the source); culture supernatant", "T1 sequence (P13943 99-468)": "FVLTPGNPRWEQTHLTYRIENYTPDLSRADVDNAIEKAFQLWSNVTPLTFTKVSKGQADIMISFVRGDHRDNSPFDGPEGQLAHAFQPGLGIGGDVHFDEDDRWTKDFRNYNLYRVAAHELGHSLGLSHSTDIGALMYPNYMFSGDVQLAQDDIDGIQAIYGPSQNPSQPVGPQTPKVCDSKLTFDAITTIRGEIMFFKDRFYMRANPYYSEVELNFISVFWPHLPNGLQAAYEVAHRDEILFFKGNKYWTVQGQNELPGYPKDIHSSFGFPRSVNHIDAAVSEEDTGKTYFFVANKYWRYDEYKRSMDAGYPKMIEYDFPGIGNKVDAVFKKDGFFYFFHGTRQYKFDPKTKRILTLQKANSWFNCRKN", "experiment": "Collagenase inhibition test (in vitro), decomposition of FITC-labelled collagen", "format": "biochemical, Japanese white rabbit", "details": "for IC50: collagenase from IL-1-stimulated rabbit chondrocyte culture supernatant, trypsin-activated, 35° C., 5% DMSO, read-out: Concentration of Drug Showing 50% Inhibition, IC50; for anti-collagenase activity (in words): refers to Test Example; for collagenase inhibition activity as a multiple of that of DMAT: relative to DMAT (control), from Table 1", "description": "The tetracycline derivatives used in the present invention were tested for collagenase inhibition (in vitro), and for suppression of destruction of articular cartilage using rabbit osteoarthritis models (in vivo).\nThe knee articular cartilage of a Japanese white rabbit (4 weeks old) was aseptically taken out. The cartilage cells (chondrocytes) were separated according to the method of S. Collier et al [Ann. Rheum. […] In 30 ml of Ham's F12 culture medium (containing 10% fetal bovine serum) 4×10^6 cartilage cells were suspended and the medium was incubated at 37° C. in a 150 cm^2 incubation flask (made by Iwaki Glass Co., Japan) and under an air atmosphere containing 5% carbon dioxide. The medium was replaced every 3 to 4 days. When the cells propagated to the state of confluence (7 to 9 days after the start of incubation), the medium was replaced by Ham's F12 serum-free culture medium (30 units/ml of human recombinant Interleukin-1a made by Genzyme Co., USA) and 0.4% lactalbumin hydrolysate (made by Sigma Co., USA) and incubation was conducted for 4 days. The culture supernatant was taken and used as the collagenase solution to be tested.\nThe collagenase activity was expressed based on the decomposition of 1 μg of collagen at 35° C. in 1 minute being equal to 1 unit.\nA solution of a drug to be tested was dissolved in dimethyl sulfoxide (DMSO), then was added to the collagenase assay solution. The final concentration of DMSO is 5%. The inhibition ratio of the drug was calculated based on the collagen decomposition activity without its addition being 100%."}, "[2]": {"test_system": "articular cartilage in rabbit osteoarthritis models", "experiment": "Test for suppression of destruction of articular cartilage using rabbit osteoarthritis models (partial lateral meniscectomy)", "format": "in vivo, New Zealand white rabbit", "description": "The tetracycline derivatives used in the present invention were tested for collagenase inhibition (in vitro), and for suppression of destruction of articular cartilage using rabbit osteoarthritis models (in vivo). The tetracycline derivatives tested were the mixture of DODMAT-2 and DODMAT-3 obtained in Synthesis Example 1 (hereinafter this mixture is referred to as \"DODMAT mixture\" and DOTC (mixture of isomers) obtained in Synthesis Example 2. DMAT was used as control.\nThe rabbit osteoarthritis models were made by the partial lateral meniscectomy procedure according to the method of C. Colombo et al [Arthritis Rheum., 26, 875 (1983)]. Adult male New Zealand white rabbits weighing approximately 3 kg each were used. The animals were anesthetized by intramuscular injection of 40 mg/kg Ketamine and 1.6 mg/kg Xylazine before surgery. The surgery was conducted as follows; the right knee was opened laterally, the fibular collateral ligament was exposed and 3-4 mm were removed. Subsequently, 3-4 mm of the sesamoid ligament were removed, followed by removal of 4-5 mm of the anterior lateral area of the exposed meniscus. The capsule and skin were then sutured. Following surgery, each animal daily received intramuscular injection of 2 mg/kg/day Dibekacin sulfate for a week to be protected from infection. The animals were sustained on standard rabbit pellets and tap water ad libitum during experiment.\nThe test drug (DODMAT mixture) or vehicle began 1 week post-surgery and continued every 7 days per week for 5 weeks. DODMAT, suspended in a vehicle aqueous solution containing 1% methyl cellulose, 0.8% sodium chloride, and 0.1% polysorbate 80, was administered orally by gavage. […] The histologic slides were coded and evaluated blind for 11 parameters, which are set forth in Table 2, using a scoring system of +1 to +4 for each type of abnormality as described by C. […] The data were analyzed by the one-sided Wilcoxon rank sum method."}, "[3]": {"test_system": "collagenase", "details": "J. Dent. Res., 66, 1310 (1987) and others; cited from earlier work"}, "[4]": {"test_system": "bone resorption", "details": "J. Dent. Res., 66, 1310 (1987) and others; cited from earlier work"}, "[5]": {"details": "compared to tetracyclines; cited from earlier work"}, "[6]": {"test_system": "rheumatoid arthritis", "details": "rheumatoid arthritis patients; J. Rheumatol., 17, 43 (1990); cited from earlier work"}, "[7]": {"test_system": "collagenase", "details": "periodontal diseases; J. Periodontal Res., 18, 516 (1983); cited from earlier work"}},
  "data": [
    {"compound": "4-dedimethylamino-12a-deoxytetracycline [DODMAT mixture]", "values": [
      {"measurement": "IC50", "setting": "[1]", "value": 2.5, "unit": "µM"},
      {"measurement": "anti-collagenase activity (in words)", "setting": "[1]", "value": "excellent anti-collagenase activity"},
      {"measurement": "collagenase inhibition activity as a multiple of that of DMAT", "setting": "[1]", "value": "at least 10 times"},
      {"measurement": "Mean score of cartilage lesions ± S.E.", "setting": "[2]; 15 mg/kg/day orally by gavage, 5 weeks from 1 week post-surgery, 9 animals, p < 0.05 (one-sided Wilcoxon rank sum), vehicle 46.6 ± 7.3 (7 animals)", "value": "24.7 ± 3.3"},
      {"measurement": "improvement resulting from treatment", "setting": "[2]; cartilage lesion score versus vehicle, 15 mg/kg/day oral", "value": "at least 47%"},
      {"measurement": "suppression of destruction of articular cartilages (in words)", "setting": "[2]; rabbit osteoarthritis models", "value": "significant suppression of destruction of articular cartilages"}
    ]},
    {"compound": "12a-deoxytetracycline [DOTC]", "values": [
      {"measurement": "IC50", "setting": "[1]", "value": 22, "unit": "µM"},
      {"measurement": "anti-collagenase activity (in words)", "setting": "[1]", "value": "excellent anti-collagenase activity"},
      {"measurement": "collagenase inhibition activity as a multiple of that of DMAT", "setting": "[1]", "value": "at least 10 times"}
    ]},
    {"compound": "C[C@@]1(O)c2cccc(O)c2C(=O)C2=C(O)[C@]3(O)C(=O)C(C(N)=O)=C(O)CC3CC21", "note": "(stereo partly drawn) [DMAT, 4-dedimethylaminotetracycline]", "values": [
      {"measurement": "collagenase inhibition compared to tetracyclines (in words)", "setting": "[3]", "value": "compares favorably to tetracyclines with respect to collagenase inhibition"},
      {"measurement": "IC50", "setting": "[1]", "value": 300, "unit": "µM"},
      {"measurement": "suppression of bone resorption compared to tetracyclines (in words)", "setting": "[4]", "value": "compares favorably to tetracyclines with respect to collagenase inhibition, suppression of bone resorption"},
      {"measurement": "antibacterial activity (in words)", "setting": "[5]", "value": "without the same antibacterial activity"}
    ]},
    {"compound": "CN(C)c1ccc(O)c2c1C[C@H]1C[C@H]3[C@H](N(C)C)C(O)=C(C(N)=O)C(=O)[C@@]3(O)C(O)=C1C2=O", "note": "[minocycline]", "values": [
      {"measurement": "time after start of administration at which appreciable effects were observed", "setting": "[6]", "value": 4, "unit": "months"},
      {"measurement": "anti-collagenolytic activity (in words)", "setting": "[7]", "value": "anti-collagenolytic activity"}
    ]}
  ]
}
